This experiment addresses T1, human TRPV4 (Homo sapiens, UniProt Q9HBA0).
T1 construct: expressed in transfected cells; host or cells: HEK-293-MSR-II cells transduced with 1% BacMam virus
Description: Ligand-gated assay (Fluo4 calcium, FLIPR; inhibition of agonist-induced activation). It is filed as cell-based. The note with it: HEK-293-MSR-II cells transduced with BacMam human TRPV4; agonist at EC80. The essentials:
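HEK-293-MSR-II cells BacMam-transduced with human TRPV4, loaded with 2 uM Fluo-4. Compound preincubated 10 min at room temperature in HBSS pH 7.4 plus 0.01% Chaps, then agonist added at its EC80. Inhibition of agonist-evoked calcium rise read on FLIPR; IC50 reported.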

Structures can show the parent of a compound that is named as a salt.

T1 sequence (Q9HBA0 whole entry): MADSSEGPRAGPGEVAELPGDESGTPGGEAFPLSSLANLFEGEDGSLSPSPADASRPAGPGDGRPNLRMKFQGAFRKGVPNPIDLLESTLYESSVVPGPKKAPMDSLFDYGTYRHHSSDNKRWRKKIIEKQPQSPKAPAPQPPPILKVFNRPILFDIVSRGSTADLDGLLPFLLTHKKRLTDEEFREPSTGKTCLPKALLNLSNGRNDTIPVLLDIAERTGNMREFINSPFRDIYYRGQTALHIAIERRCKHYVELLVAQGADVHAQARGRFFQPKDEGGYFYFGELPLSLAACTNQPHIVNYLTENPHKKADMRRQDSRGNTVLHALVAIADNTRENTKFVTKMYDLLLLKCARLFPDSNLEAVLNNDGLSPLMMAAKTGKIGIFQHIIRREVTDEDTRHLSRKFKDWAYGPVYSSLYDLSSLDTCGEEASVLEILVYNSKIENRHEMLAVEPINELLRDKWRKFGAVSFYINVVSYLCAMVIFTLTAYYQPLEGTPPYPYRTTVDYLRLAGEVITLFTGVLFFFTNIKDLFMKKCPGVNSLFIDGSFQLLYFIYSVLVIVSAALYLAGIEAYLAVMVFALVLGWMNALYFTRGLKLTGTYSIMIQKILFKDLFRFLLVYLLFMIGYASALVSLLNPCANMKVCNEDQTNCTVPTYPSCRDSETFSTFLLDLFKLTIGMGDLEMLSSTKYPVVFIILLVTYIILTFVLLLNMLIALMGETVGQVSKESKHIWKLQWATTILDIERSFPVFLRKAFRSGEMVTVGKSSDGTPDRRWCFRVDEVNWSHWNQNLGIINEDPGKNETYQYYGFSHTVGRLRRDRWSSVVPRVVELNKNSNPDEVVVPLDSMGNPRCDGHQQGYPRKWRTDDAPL

For the molecule `CC(C)(C)n1cc(N2C[C@@]3(CCC[C@](C)(Cn4cnc5ccc(C#N)cc54)C3)OC2=O)nn1` [Example 52, 1-(((5S,7S)-3-(1-(tert-butyl)-1H-1,2,3-triazol-4-yl)-7-methyl-2-oxo-1-oxa-3-azaspiro[4.5]decan-7-yl)methyl)-1H-benzo[d]imidazole-6-carbonitrile], the IC50 lay in the range of 50 to 500 nM.
As for `CC(C)(C)c1cnc(N2C[C@@]3(CCC[C@](C)(Cn4cnc5ccc(C#N)cc54)C3)OC2=O)cn1` [Example 53, 1-(((5S,7S)-3-(5-(tert-butyl)pyrazin-2-yl)-7-methyl-2-oxo-1-oxa-3-azaspiro[4.5]decan-7-yl)methyl)-1H-benzo[d]imidazole-6-carbonitrile], the IC50 was in the range of 0.1 to 10 nM.
With `C[C@]1(Cn2cnc3ccc(C#N)cc32)CCC[C@@]2(CN(c3ncc(C(F)(F)F)cn3)C(=O)O2)C1` [Example 54, 1-(((5S,7S)-7-methyl-2-oxo-3-(5-(trifluoromethyl)pyrimidin-2-yl)-1-oxa-3-azaspiro[4.5]decan-7-yl)methyl)-1H-benzo[d]imidazole-6-carbonitrile], the 50% inhibitory concentration (IC50) was 50 to 500 nM.
Next, `COC(C)(C)c1ccc(N2C[C@@]3(CCC[C@](C)(Cn4cnc5ccc(C#N)cc54)C3)OC2=O)cn1` [Example 55, 1-(((5S,7S)-3-(6-(2-methoxypropan-2-yl)pyridin-3-yl)-7-methyl-2-oxo-1-oxa-3-azaspiro[4.5]decan-7-yl)methyl)-1H-benzo[d]imidazole-6-carbonitrile]: 0.1 to 10 nM.
As for `C=C(C)c1cc(N2C[C@@]3(CCC[C@](C)(Cn4cnc5ccc(C#N)cc54)C3)OC2=O)on1` [Example 56, 1-(((5S,7S)-7-methyl-2-oxo-3-(3-(prop-1-en-2-yl)isoxazol-5-yl)-1-oxa-3-azaspiro[4.5]decan-7-yl)methyl)-1H-benzo[d]imidazole-6-carbonitrile], the IC50 was in the range of 10 to 50 nM.
Regarding `Cc1noc(N2C[C@@]3(CCC[C@](C)(Cn4cnc5ccc(C#N)cc54)C3)OC2=O)c1C` [Example 57, 1-(((5S,7S)-3-(3,4-Dimethylisoxazol-5-yl)-7-methyl-2-oxo-1-oxa-3-azaspiro[4.5]decan-7-yl)methyl)-1H-benzo[d]imidazole-6-carbonitrile], the IC50 was 0.1 to 10 nM.
Regarding `Cc1noc(N2C[C@@]3(CCC[C@H](Cn4cnc5ccc(C#N)cc54)C3)OC2=O)c1C` [Example 58, 1-(((5S,7S)-3-(3,4-dimethylisoxazol-5-yl)-2-oxo-1-oxa-3-azaspiro[4.5]decan-7-yl)methyl)-1H-benzo[d]imidazole-6-carbonitrile], the IC50 is 50 to 500 nM.
Regarding `N#Cc1ccc2ncn(C[C@H]3CCC[C@]4(C3)CN(Cc3csc(-c5ccccc5)n3)C(=O)O4)c2c1` [Example 63, 1-({(5S,7S)-2-oxo-3-[(2-phenyl-1,3-thiazol-4-yl)methyl]-1-oxa-3-azaspiro[4.5]dec-7-yl}methyl)-1H-benzimidazole-6-carbonitrile], the half-maximal inhibitory concentration (IC50) fell in the range of 10 to 50 nM.
With `N#Cc1ccc2ncn(C[C@H]3CCC[C@]4(C3)CN(Cc3cccc(-c5ccccc5)n3)C(=O)O4)c2c1` [Example 64, 1-({(5S,7S)-2-oxo-3-[(6-phenyl-2-pyridinyl)methyl]-1-oxa-3-azaspiro[4.5]dec-7-yl}methyl)-1H-benzimidazole-6-carbonitrile] the figure was 0.1 to 10 nM.
With `CC(C)(CN1C[C@@]2(CCC[C@H](Cn3cnc4ccc(C#N)cc43)C2)OC1=O)c1nc(C2CCOCC2)no1` [Example 65, 1-[((5S,7S)-3-{2-methyl-2-[3-(tetrahydro-2H-pyran-4-yl)-1,2,4-oxadiazol-5-yl]propyl}-2-oxo-1-oxa-3-azaspiro[4.5]dec-7-yl)methyl]-1H-benzimidazole-6-carbonitrile] the figure was 10 to 50 nM; with `N#Cc1ccc2ncn(C[C@H]3CCC[C@]4(C3)CN(Cc3nc(-c5ccccc5)cs3)C(=O)O4)c2c1` [Example 66, 1-({(5S,7S)-2-oxo-3-[(4-phenyl-1,3-thiazol-2-yl)methyl]-1-oxa-3-azaspiro[4.5]dec-7-yl}methyl)-1H-benzimidazole-6-carbonitrile], 10 to 50 nM; with `N#Cc1ccc2ncn(C[C@H]3CCC[C@]4(C3)CN(Cc3cc(-c5ccc(Cl)cc5)no3)C(=O)O4)c2c1` [Example 67, 1-[((5S,7S)-3-{[3-(4-chlorophenyl)-5-isoxazolyl]methyl}-2-oxo-1-oxa-3-azaspiro[4.5]dec-7-yl)methyl]-1H-benzimidazole-6-carbonitrile], 10 to 50 nM.
For the molecule `N#Cc1ccc2ncn(C[C@H]3CCC[C@]4(C3)CN(Cc3cc(-c5ccccc5)no3)C(=O)O4)c2c1` [Example 68, 1-({(5S,7S)-2-oxo-3-[(3-phenyl-5-isoxazolyl)methyl]-1-oxa-3-azaspiro[4.5]dec-7-yl}methyl)-1H-benzimidazole-6-carbonitrile], the half-maximal inhibitory concentration (IC50) lay in the range of 10 to 50 nM.
As to `Cn1nc(CN2C[C@@]3(CCC[C@H](Cn4cnc5ccc(C#N)cc54)C3)OC2=O)cc1-c1ccccc1` [Example 69, 1-({(5S,7S)-3-[(1-methyl-5-phenyl-1H-pyrazol-3-yl)methyl]-2-oxo-1-oxa-3-azaspiro[4.5]dec-7-yl}methyl)-1H-benzimidazole-6-carbonitrile], the IC50 lay in the range of 50 to 500 nM.
Next, `COc1ccc(-c2csc(CN3C[C@@]4(CCC[C@H](Cn5cnc6ccc(C#N)cc65)C4)OC3=O)n2)cc1C` [Example 70, 1-{[(5S,7S)-3-({4-[3-methyl-4-(methyloxy)phenyl]-1,3-thiazol-2-yl}methyl)-2-oxo-1-oxa-3-azaspiro[4.5]dec-7-yl]methyl}-1H-benzimidazole-6-carbonitrile]: 0.1 to 10 nM.
Next, `N#Cc1ccc2ncn(C[C@H]3CCC[C@]4(C3)CN(Cc3nnc(-c5ccccc5)[nH]3)C(=O)O4)c2c1` [Example 71, 1-({(5S,7S)-2-oxo-3-[(3-phenyl-1H-1,2,4-triazol-5-yl)methyl]-1-oxa-3-azaspiro[4.5]dec-7-yl}methyl)-1H-benzimidazole-6-carbonitrile]: 50 to 500 nM; `N#Cc1ccc2ncn(C[C@H]3CCC[C@]4(C3)CN(Cc3cncc(-c5ccccc5)c3)C(=O)O4)c2c1` [Example 72, 1-({(5S,7S)-2-oxo-3-[(5-phenyl-3-pyridinyl)methyl]-1-oxa-3-azaspiro[4.5]dec-7-yl}methyl)-1H-benzimidazole-6-carbonitrile trifluoroacetate]: 50 to 500 nM.
In the case of `CC(C)(CN1C[C@@]2(CCC[C@H](Cn3cnc4c(Cl)cc(C#N)cc43)C2)OC1=O)c1nc(-c2ccccc2)no1` [Example 73, 4-chloro-1-({(5S,7S)-3-[2-methyl-2-(3-phenyl-1,2,4-oxadiazol-5-yl)propyl]-2-oxo-1-oxa-3-azaspiro[4.5]dec-7-yl}methyl)-1H-benzimidazole-6-carbonitrile], the concentration for half-maximal inhibition (IC50) lay in the range of 0.1 to 10 nM.
With `Cc1noc(C(C)(C)CN2C[C@@]3(CCC[C@H](Cn4cnc5ccc(C#N)cc54)C3)OC2=O)n1` [Example 74, 1-({(5S,7S)-3-[2-methyl-2-(3-methyl-1,2,4-oxadiazol-5-yl)propyl]-2-oxo-1-oxa-3-azaspiro[4.5]dec-7-yl}methyl)-1H-benzimidazole-6-carbonitrile] the figure was 10 to 50 nM.
With `CC(C)(CN1C[C@@]2(CCC[C@H](Cn3cnc4ccc(C#N)cc43)C2)OC1=O)c1nc(-c2ccccc2)no1` [Example 75, 1-({(5S,7S)-3-[2-methyl-2-(3-phenyl-1,2,4-oxadiazol-5-yl)propyl]-2-oxo-1-oxa-3-azaspiro[4.5]dec-7-yl}methyl)-1H-benzimidazole-6-carbonitrile], the half-inhibitory concentration (IC50) fell in the range of 0.1 to 10 nM.
Next, `CC(C)c1noc(C(C)(C)CN2C[C@@]3(CCC[C@H](Cn4cnc5ccc(C#N)cc54)C3)OC2=O)n1` [Example 76, 1-[((5S,7S)-3-{2-methyl-2-[3-(1-methylethyl)-1,2,4-oxadiazol-5-yl]propyl}-2-oxo-1-oxa-3-azaspiro[4.5]dec-7-yl)methyl]-1H-benzimidazole-6-carbonitrile]: 0.1 to 10 nM; `CC(C)(CN1C[C@@]2(CCC[C@H](Cn3cnc4ccc(C#N)cc43)C2)OC1=O)c1nc(C2CCCC2)no1` [Example 77, 1-({(5S,7S)-3-[2-(3-cyclopentyl-1,2,4-oxadiazol-5-yl)-2-methylpropyl]-2-oxo-1-oxa-3-azaspiro[4.5]dec-7-yl}methyl)-1H-benzimidazole-6-carbonitrile]: 0.1 to 10 nM; `CC(C)(CN1C[C@@]2(CCC[C@H](Cn3cnc4ccc(C#N)cc43)C2)OC1=O)c1nc(-c2cncnc2)no1` [Example 78, 1-[((5S,7S)-3-{2-methyl-2-[3-(5-pyrimidinyl)-1,2,4-oxadiazol-5-yl]propyl}-2-oxo-1-oxa-3-azaspiro[4.5]dec-7-yl)methyl]-1H-benzimidazole-6-carbonitrile]: 0.1 to 10 nM.
For `CC(C)(C)c1noc(C(C)(C)CN2C[C@@]3(CCC[C@H](Cn4cnc5ccc(C#N)cc54)C3)OC2=O)n1` [Example 79, 1-[((5S,7S)-3-{2-[3-(1,1-dimethylethyl)-1,2,4-oxadiazol-5-yl]-2-methylpropyl}-2-oxo-1-oxa-3-azaspiro[4.5]dec-7-yl)methyl]-1H-benzimidazole-6-carbonitrile], the half-inhibitory concentration (IC50) is 0.1 to 10 nM.
Next, `CC(C)(CN1C[C@@]2(CCC[C@H](Cn3cnc4ccc(C#N)cc43)C2)OC1=O)c1nc(C(F)(F)F)no1` [Example 80, 1-[((5S,7S)-3-{2-methyl-2-[3-(trifluoromethyl)-1,2,4-oxadiazol-5-yl]propyl}-2-oxo-1-oxa-3-azaspiro[4.5]dec-7-yl)methyl]-1H-benzimidazole-6-carbonitrile]: 0.1 to 10 nM; `COCc1noc(C(C)(C)CN2C[C@@]3(CCC[C@H](Cn4cnc5ccc(C#N)cc54)C3)OC2=O)n1` [Example 81, 1-{[(5S,7S)-3-(2-methyl-2-{3-[(methyloxy)methyl]-1,2,4-oxadiazol-5-yl}propyl)-2-oxo-1-oxa-3-azaspiro[4.5]dec-7-yl]methyl}-1H-benzimidazole-6-carbonitrile]: 0.1 to 10 nM.

As a reminder, the IC50 is the concentration needed to halve the response being measured.

The values above are taken from US9187464B2, “TRPV4 antagonists” (GlaxoSmithKline Intellectual Property (No. 2) Limited, priority 2011, dated 2015).
